Target: T1, KRas-G12D (Homo sapiens, UniProt P01116, G12D)
T1 construct: insert the HiBiT tag onto the N-terminus of one or more of the endogenous KRas alleles; host or cells: AsPC-1 HiBiT-KRasG12D knock-in clone (one tagged allele, two untagged KRasG12D alleles)
Assay: HiBiT Degradation Assay (G12D), AsPC-1 HiBiT-KRasG12D cells, 24 hr
Format: cell-based
Conditions: for Dmax: ASPC1, AsPC-1 cells, maximum degradation observed; for DC50: AsPC-1 cells
How it was run: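 Degradation was read after 24 hr compound exposure (0.5% DMSO, 37° C) by Nano-Glo HiBiT lytic luminescence in AsPC-1 cells carrying a HiBiT tag on one of three KRasG12D alleles. Signal relative to DMSO gave DC50 and Dmax by 4-parameter fit; alamar blue fluorescence monitored cytotoxicity.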

T1 sequence (P01116 1-188 isoform P01116-2 G12D): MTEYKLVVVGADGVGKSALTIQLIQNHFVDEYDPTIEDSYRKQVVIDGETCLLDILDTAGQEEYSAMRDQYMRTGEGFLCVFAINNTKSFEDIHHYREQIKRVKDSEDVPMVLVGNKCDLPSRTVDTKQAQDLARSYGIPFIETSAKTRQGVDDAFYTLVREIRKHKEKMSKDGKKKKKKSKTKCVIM

SMILES	Dmax	DC50
C#Cc1c(F)ccc2cc(O)cc(-c3ncc4c(N5CC6CCC(C5)N6)nc(OC[C@@H]5C[C@@H](OC6CCN(CC7(F)CCN(c8ccc9c(c8F)CN(C8CCC(=O)NC8=O)C9=O)CC7)CC6)CN5C)nc4c3F)c12 (stereo partly drawn) [Compound 112, 3-(5-{4-[(4-{[(3R,5S)-5-{[(4-{3,8-diazabicyclo[3.2.1]octan-3-yl}-7-(8-ethynyl-7-fluoro-3-hydroxynaphthalen-1-yl)-8-fluoropyrido[4,3-d]pyrimidin-2-yl)oxy]methyl}-1-methylpyrrolidin-3-yl]oxy}piperidin-1-yl)methyl]-4-fluoropiperidin-1-yl}-4-fluoro-1-oxo-2,3-dihydro-1H-isoindol-2-yl)piperidine-2,6-dione]	> 70%	< 5.1 µM
C#Cc1c(F)ccc2cc(O)cc(-c3ncc4c(N5C[C@H]6CC[C@@H](C5)N6)nc(OC[C@@H]5C[C@@H](OC6CCN(CC7CCN(c8ccc9c(c8Cl)CN(C8CCC(=O)NC8=O)C9=O)CC7)CC6)CN5C)nc4c3F)c12 (stereo partly drawn) [Compound 113, 3-(5-(4-((4-(((3R,5S)-5-(((4-((1R,5S)-3,8-diazabicyclo[3.2.1]octan-3-yl)-7-(8-ethynyl-7-fluoro-3-hydroxynaphthalen-1-yl)-8-fluoropyrido[4,3-d]pyrimidin-2-yl)oxy)methyl)-1-methylpyrrolidin-3-yl)oxy)piperidin-1-yl)methyl)piperidin-1-yl)-4-chloro-1-oxoisoindolin-2-yl)piperidine-2,6-dione]	> 70%	< 5.1 µM
C#Cc1c(F)ccc2cc(O)cc(-c3ncc4c(N5CC6CCC(C5)N6)nc(OC[C@@H]5CC[C@@H](COC(=O)N6CCN(c7ccc8c(c7)CN(C7CCC(=O)NC7=O)C8=O)CC6)N5C)nc4c3F)c12 (stereo partly drawn) [Compound 114, [(2S,5S)-5-{[(4-{3,8-diazabicyclo[3.2.1]octan-3-yl}-7-(8-ethynyl-7-fluoro-3-hydroxynaphthalen-1-yl)-8-fluoropyrido[4,3-d]pyrimidin-2-yl)oxy]methyl}-1-methylpyrrolidin-2-yl]methyl 4-[2-(2,6-dioxopiperidin-3-yl)-1-oxo-2,3-dihydro-1H-isoindol-5-yl]piperazine-1-carboxylate]		< 5.1 µM
C#Cc1c(F)ccc2cc(O)cc(-c3ncc4c(N5CC6CCC(C5)N6)nc(OC[C@@H]5C[C@@H](OC6CCN(CC7CCN(c8cccc9c8CN(C8CCC(=O)NC8=O)C9=O)CC7)CC6)CN5C)nc4c3F)c12 (stereo partly drawn) [Compound 115, 3-(4-{4-[(4-{[(3R,5S)-5-{[(4-{3,8-diazabicyclo[3.2.1]octan-3-yl}-7-(8-ethynyl-7-fluoro-3-hydroxynaphthalen-1-yl)-8-fluoropyrido[4,3-d]pyrimidin-2-yl)oxy]methyl}-1-methylpyrrolidin-3-yl]oxy}piperidin-1-yl)methyl]piperidin-1-yl}-1-oxo-2,3-dihydro-1H-isoindol-2-yl)piperidine-2,6-dione]	> 70%	< 5.1 µM
C#Cc1c(F)ccc2cc(O)cc(-c3ncc4c(N5CC6CCC(C5)N6)nc(OC[C@@H]5C[C@@H](OC6CCN(CC7CCN(c8ccc9c(c8)CN(C8CCC(=O)NC8=O)C9=O)CC7)CC6)CN5C)nc4c3F)c12 (some centres unmarked) [Compound 116]	> 70%	< 5.1 µM
C#Cc1c(F)ccc2cc(O)cc(-c3ncc4c(N5CC6CCC(C5)N6)nc(OC[C@@H]5CC[C@@H](COC(=O)N6CCN(c7cccc8c7CN(C7CCC(=O)NC7=O)C8=O)CC6)N5C)nc4c3F)c12 (stereo partly drawn) [Compound 117, [(2S,5S)-5-{[(4-{3,8-diazabicyclo[3.2.1]octan-3-yl}-7-(8-ethynyl-7-fluoro-3-hydroxynaphthalen-1-yl)-8-fluoropyrido[4,3-d]pyrimidin-2-yl)oxy]methyl}-1-methylpyrrolidin-2-yl]methyl 4-[2-(2,6-dioxopiperidin-3-yl)-1-oxo-2,3-dihydro-1H-isoindol-4-yl]piperazine-1-carboxylate]		0.25 to 1 µM
CCc1cccc2cc(O)cc(-c3ncc4c(N5CC6CCC(C5)N6)nc(OC[C@@H]5C[C@@H](OC6CCN(c7cccc8c7CN(C7CCC(=O)NC7=O)C8=O)CC6)CN5C)nc4c3F)c12 (stereo partly drawn) [Compound 118, 3-[4-(4-{[(3R,5S)-5-{[(4-{3,8-diazabicyclo[3.2.1]octan-3-yl}-7-(8-ethyl-3-hydroxynaphthalen-1-yl)-8-fluoropyrido[4,3-d]pyrimidin-2-yl)oxy]methyl}-1-methylpyrrolidin-3-yl]oxy}piperidin-1-yl)-1-oxo-2,3-dihydro-1H-isoindol-2-yl]piperidine-2,6-dione]		> 1 µM
C#Cc1c(F)ccc2cc(O)cc(-c3ncc4c(N5CC6CCC(C5)N6)nc(OCCN5CCC6(CC5)CN(CC5(F)CCN(c7ccc8c(c7F)CN(C7CCC(=O)NC7=O)C8=O)CC5)C6)nc4c3F)c12 (centres unmarked) [Compound 119, 3-(5-{4-[(7-{2-[(4-{3,8-diazabicyclo[3.2.1]octan-3-yl}-7-(8-ethynyl-7-fluoro-3-hydroxynaphthalen-1-yl)-8-fluoropyrido[4,3-d]pyrimidin-2-yl)oxy]ethyl}-2,7-diazaspiro[3.5]nonan-2-yl)methyl]-4-fluoropiperidin-1-yl}-4-fluoro-1-oxo-2,3-dihydro-1H-isoindol-2-yl)piperidine-2,6-dione]		< 5.1 µM
C#Cc1c(F)ccc2cc(O)cc(-c3ncc4c(N5CC6CCC(C5)N6)nc(OCCN5CCC6(CC5)CCN(CC5(F)CCN(c7ccc8c(c7F)CN(C7CCC(=O)NC7=O)C8=O)CC5)CC6)nc4c3F)c12 (centres unmarked) [Compound 120, 3-(5-{4-[(9-{2-[(4-{3,8-diazabicyclo[3.2.1]octan-3-yl}-7-(8-ethynyl-7-fluoro-3-hydroxynaphthalen-1-yl)-8-fluoropyrido[4,3-d]pyrimidin-2-yl)oxy]ethyl}-3,9-diazaspiro[5.5]undecan-3-yl)methyl]-4-fluoropiperidin-1-yl}-4-fluoro-1-oxo-2,3-dihydro-1H-isoindol-2-yl)piperidine-2,6-dione]	> 70%	< 5.1 µM
C#Cc1c(F)ccc2cc(O)cc(-c3ncc4c(N5CC6CCC(C5)N6)nc(OCCN5CCC6(CC5)CCN(CC5CCN(c7ccc8c(c7F)CN(C7CCC(=O)NC7=O)C8=O)CC5)CC6)nc4c3F)c12 (centres unmarked) [Compound 121, 3-[5-[4-[[9-[2-[4-(3,8-diazabicyclo[3.2.1]octan-3-yl)-7-(8-ethynyl-7-fluoro-3-hydroxy-1-naphthyl)-8-fluoro-pyrido[4,3-d]pyrimidin-2-yl]oxyethyl]-3,9-diazaspiro[5.5]undecan-3-yl]methyl]-1-piperidyl]-4-fluoro-1-oxo-isoindolin-2-yl]piperidine-2,6-dione]	> 70%	< 5.1 µM
C#Cc1c(F)ccc2cc(O)cc(-c3ncc4c(N5CC6CCC(C5)N6)nc(OC[C@@H]5C[C@@H](OC6CCN(CC7CCN(c8ccc9c(c8F)CN(C8CCC(=O)NC8=O)C9=O)CC7)CC6)CN5C)nc4c3F)c12 (stereo partly drawn) [Compound 122, 3-(5-{4-[(4-{[(3R,5S)-5-{[(4-{3,8-diazabicyclo[3.2.1]octan-3-yl}-7-(8-ethynyl-7-fluoro-3-hydroxynaphthalen-1-yl)-8-fluoropyrido[4,3-d]pyrimidin-2-yl)oxy]methyl}-1-methylpyrrolidin-3-yl]oxy}piperidin-1-yl)methyl]piperidin-1-yl}-4-fluoro-1-oxo-2,3-dihydro-1H-isoindol-2-yl)piperidine-2,6-dione]	> 70%	< 5.1 µM
C#Cc1c(F)ccc2cc(O)cc(-c3ncc4c(N5CC6CCC(C5)N6)nc(OCCN5CCC(CC6CCN(CC7CCN(c8ccc(F)c9c8CN(C8CCC(=O)NC8=O)C9=O)CC7)CC6)CC5)nc4c3F)c12 (centres unmarked) [Compound 123]	> 70%	< 5.1 µM
C#Cc1c(F)ccc2cc(O)cc(-c3ncc4c(N5CC6CCC(C5)N6)nc(OCCN5CCC(F)(CC6CCN(CC7CCN(c8cccc9c8CN(C8CCC(=O)NC8=O)C9=O)CC7)CC6)CC5)nc4c3F)c12 (centres unmarked) [Compound 124, 3-{4-[4-({4-[(1-{2-[(4-{3,8-diazabicyclo[3.2.1]octan-3-yl}-7-(8-ethynyl-7-fluoro-3-hydroxynaphthalen-1-yl)-8-fluoropyrido[4,3-d]pyrimidin-2-yl)oxy]ethyl}-4-fluoropiperidin-4-yl)methyl]piperidin-1-yl}methyl)piperidin-1-yl]-1-oxo-2,3-dihydro-1H-isoindol-2-yl}piperidine-2,6-dione]	> 70%	< 5.1 µM
C#Cc1c(F)ccc2cc(O)cc(-c3ncc4c(N5CC6CCC(C5)N6)nc(OCCN5CCC(CC6CCN(CC7(F)CCN(c8cccc9c8CN(C8CCC(=O)NC8=O)C9=O)CC7)CC6)CC5)nc4c3F)c12 (centres unmarked) [Compound 125, 3-{4-[4-({4-[(1-{2-[(4-{3,8-diazabicyclo[3.2.1]octan-3-yl}-7-(8-ethynyl-7-fluoro-3-hydroxynaphthalen-1-yl)-8-fluoropyrido[4,3-d]pyrimidin-2-yl)oxy]ethyl}piperidin-4-yl)methyl]piperidin-1-yl}methyl)-4-fluoropiperidin-1-yl]-1-oxo-2,3-dihydro-1H-isoindol-2-yl}piperidine-2,6-dione]		< 5.1 µM
C#Cc1c(F)ccc2cc(O)cc(-c3ncc4c(N5CC6CCC(C5)N6)nc(OCCN5CCC(CN6CCC(CC7CCN(c8cccc9c8CN(C8CCC(=O)NC8=O)C9=O)CC7)CC6)CC5)nc4c3F)c12 (centres unmarked) [Compound 126, 3-{4-[4-({1-[(1-{2-[(4-{3,8-diazabicyclo[3.2.1]octan-3-yl}-7-(8-ethynyl-7-fluoro-3-hydroxynaphthalen-1-yl)-8-fluoropyrido[4,3-d]pyrimidin-2-yl)oxy]ethyl}piperidin-4-yl)methyl]piperidin-4-yl}methyl)piperidin-1-yl]-1-oxo-2,3-dihydro-1H-isoindol-2-yl}piperidine-2,6-dione]	> 70%	< 5.1 µM
C#Cc1c(F)ccc2cc(O)cc(-c3nc(N4CC5CCC(C4)N5)c4cnc(OCCN5CCC6(CC5)CN(CC5CCN(c7ccc8c(c7F)CN(C7CCC(=O)NC7=O)C8=O)CC5)C6)nc4c3F)c12 (centres unmarked) [Compound 127]		< 5.1 µM

— patent US12448399B2, “Cereblon-based KRAS degrading PROTACs and uses related thereto” (Arvinas Operations, Inc., priority 2023, dated 2025)
